Results as given in PubChem BioAssay (NCI).
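Values below derive from 48-hour exposures of cells grown in 96-well plates, with endpoints linearly interpolated between the two concentrations bracketing the appropriate inhibition level. The concentration for 50% growth inhibition is given as GI50. Definition used: TGI = concentration required for complete inhibition of growth.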

Key:
Assay in all cases: NCI-60 cell line screen, 48 h
HOP-92 NSCLC = system: HOP-92 NSCLC
OVCAR-8 ovarian = system: OVCAR-8 ovarian
EKVX NSCLC = system: EKVX NSCLC
SK-MEL-28 melanoma = system: SK-MEL-28 melanoma
LOX IMVI melanoma = system: LOX IMVI melanoma
SF-539 CNS = system: SF-539 CNS
OVCAR-3 ovarian = system: OVCAR-3 ovarian
SK-MEL-2 melanoma = system: SK-MEL-2 melanoma
HL-60(TB) leukemia = system: HL-60(TB) leukemia
OVCAR-4 ovarian = system: OVCAR-4 ovarian

C=C1C(=O)c2cc3c(cc2C(c2cc(OC)c(OC)c(OC)c2)[C@@H]1C(=O)O)OCO3 (some centres not stated)
TGI (HOP-92 NSCLC): 75.4 µM
TGI (OVCAR-8 ovarian): > 100 µM
TGI (EKVX NSCLC): > 100 µM
TGI (SK-MEL-28 melanoma): > 100 µM
TGI (LOX IMVI melanoma): > 100 µM
TGI (SF-539 CNS): > 100 µM
TGI (OVCAR-3 ovarian): 72.8 µM

N#CC(/C(=N/NC(N)=S)C(=O)Nc1cccc(Cl)c1)c1ccccc1 (configuration not stated)
TGI (SK-MEL-2 melanoma): > 100 µM
TGI (HOP-92 NSCLC): > 100 µM
TGI (OVCAR-8 ovarian): > 100 µM
TGI (EKVX NSCLC): > 100 µM
TGI (SK-MEL-28 melanoma): > 100 µM
TGI (HL-60(TB) leukemia): > 100 µM
TGI (OVCAR-4 ovarian): > 100 µM
TGI (SF-539 CNS): > 100 µM
TGI (OVCAR-3 ovarian): > 100 µM

COC(=O)c1nc(C(=O)OC)c2c([nH]c3ccccc32)c1C(=O)OC
TGI (SK-MEL-2 melanoma): > 100 µM
TGI (HOP-92 NSCLC): > 100 µM
TGI (OVCAR-8 ovarian): > 100 µM
TGI (SK-MEL-28 melanoma): > 100 µM
TGI (LOX IMVI melanoma): > 100 µM
TGI (SF-539 CNS): > 100 µM
TGI (OVCAR-3 ovarian): > 100 µM

COc1ccccc1NC(=O)C(=O)Cc1cnc2ccccc2n1
TGI (SK-MEL-2 melanoma): > 100 µM
TGI (HOP-92 NSCLC): > 100 µM
TGI (OVCAR-8 ovarian): > 100 µM
TGI (SK-MEL-28 melanoma): > 100 µM
TGI (HL-60(TB) leukemia): > 100 µM
TGI (LOX IMVI melanoma): > 100 µM
TGI (OVCAR-4 ovarian): > 100 µM
TGI (SF-539 CNS): > 100 µM
TGI (OVCAR-3 ovarian): > 100 µM

CC(C)OCc1cc(CN2CCN(c3cccc(Cl)c3)CC2)c(O)c2ncccc12
GI50 (SK-MEL-2 melanoma): 1.74 µM
TGI (SK-MEL-2 melanoma): 7.07 µM
GI50 (HOP-92 NSCLC): 1.43 µM
TGI (HOP-92 NSCLC): 19.4 µM
GI50 (OVCAR-8 ovarian): 0.367 µM
TGI (OVCAR-8 ovarian): 11.6 µM
GI50 (SK-MEL-28 melanoma): 0.997 µM
TGI (SK-MEL-28 melanoma): 14.5 µM
GI50 (HL-60(TB) leukemia): 0.388 µM
TGI (HL-60(TB) leukemia): 2.84 µM
GI50 (LOX IMVI melanoma): 0.416 µM
TGI (LOX IMVI melanoma): 10.2 µM
GI50 (SF-539 CNS): 0.471 µM
TGI (SF-539 CNS): 3.48 µM
GI50 (OVCAR-3 ovarian): 0.451 µM
TGI (OVCAR-3 ovarian): 14.8 µM

N#Cc1c2ccccc2c2nnc3ccc(C(F)(F)F)cc3n12
GI50 (SK-MEL-2 melanoma): 23.5 µM
TGI (SK-MEL-2 melanoma): 85.2 µM
GI50 (HOP-92 NSCLC): 91.6 µM
TGI (HOP-92 NSCLC): > 100 µM
GI50 (OVCAR-8 ovarian): 43.8 µM
TGI (OVCAR-8 ovarian): > 100 µM
GI50 (SK-MEL-28 melanoma): > 100 µM
TGI (SK-MEL-28 melanoma): > 100 µM
GI50 (HL-60(TB) leukemia): 40 µM
TGI (HL-60(TB) leukemia): > 100 µM
GI50 (LOX IMVI melanoma): 21.6 µM
TGI (LOX IMVI melanoma): 94.5 µM
GI50 (OVCAR-4 ovarian): 97.9 µM
TGI (OVCAR-4 ovarian): > 100 µM
GI50 (OVCAR-3 ovarian): 38.2 µM
TGI (OVCAR-3 ovarian): > 100 µM

Cc1ccc(NC(=O)/C(=N\NC(N)=S)C(C#N)c2ccccc2C)cc1C (configuration not stated)
TGI (SK-MEL-2 melanoma): > 100 µM
TGI (HOP-92 NSCLC): > 100 µM
TGI (OVCAR-8 ovarian): > 100 µM
TGI (EKVX NSCLC): > 100 µM
TGI (SK-MEL-28 melanoma): > 100 µM
TGI (HL-60(TB) leukemia): > 100 µM
TGI (OVCAR-4 ovarian): > 100 µM
TGI (SF-539 CNS): > 100 µM
TGI (OVCAR-3 ovarian): > 100 µM

C=C1c2[nH]c3ccccc3c2CC(C(=O)O)N1C(O)c1ccc(S(=O)(=O)O)cc1 (configuration not stated)
TGI (SK-MEL-2 melanoma): > 100 µM
TGI (HOP-92 NSCLC): > 100 µM
TGI (OVCAR-8 ovarian): > 100 µM
TGI (SK-MEL-28 melanoma): > 100 µM
TGI (HL-60(TB) leukemia): > 100 µM
TGI (LOX IMVI melanoma): > 100 µM
TGI (OVCAR-4 ovarian): > 100 µM
TGI (SF-539 CNS): > 100 µM
TGI (OVCAR-3 ovarian): > 100 µM

COC1=CC(=O)OC(/C=C(C)/C=C/C2=C(C)CCCC2(C)C)C1 (configuration not stated)
TGI (SK-MEL-2 melanoma): > 100 µM
TGI (HOP-92 NSCLC): > 100 µM
TGI (OVCAR-8 ovarian): > 100 µM
TGI (EKVX NSCLC): > 100 µM
TGI (SK-MEL-28 melanoma): > 100 µM
TGI (HL-60(TB) leukemia): > 100 µM
TGI (OVCAR-4 ovarian): > 100 µM
TGI (SF-539 CNS): > 100 µM
TGI (OVCAR-3 ovarian): > 100 µM

N#Cc1c2ccccc2c2nnc3ccccc3n12
GI50 (HOP-92 NSCLC): > 100 µM
TGI (HOP-92 NSCLC): > 100 µM
GI50 (OVCAR-8 ovarian): 11.1 µM
TGI (OVCAR-8 ovarian): 45.9 µM
GI50 (EKVX NSCLC): 12.6 µM
TGI (EKVX NSCLC): 72.1 µM
GI50 (SK-MEL-28 melanoma): 78.6 µM
TGI (SK-MEL-28 melanoma): > 100 µM
GI50 (HL-60(TB) leukemia): > 100 µM
TGI (HL-60(TB) leukemia): > 100 µM
GI50 (LOX IMVI melanoma): 6.47 µM
TGI (LOX IMVI melanoma): 25.2 µM
GI50 (OVCAR-4 ovarian): > 100 µM
TGI (OVCAR-4 ovarian): > 100 µM
GI50 (OVCAR-3 ovarian): 59.7 µM
TGI (OVCAR-3 ovarian): > 100 µM
